Converted amounts (≈) assume the structure as drawn.
Experiments:
[1] = test system: NCI-H460 (non-small cell lung carcinoma cell); assay: MTT antiproliferative assay (cell growth %, GI50), NCI-H460; type: cell-based
Summary of the method: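 Cells exposed to compounds in DMSO or vehicle for 48 hours; MTT (2 mg/mL) added before and after treatment for 2 hours, formazan dissolved in DMSO and OD570 read. GI50 from three determinations, reported as mean±SD.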

[2] = test system: RCC 786-O (renal cell carcinoma cell); assay: Preferential antiproliferative activity, RCC 786-O; type: cell-based
Method: (§1) Determination of GI50 of compounds 13a, 13c, 14a, 14c, 15a, 16a was conducted substantially according to the method as described in the preceding section A entitled “Evaluation of antiproliferative activity”, except that the normal cell line MRC-5 was also utilized, and that camptothecin and daunorubicin were tested instead of compounds 1, 2, 3. The concentration of the respective test compound, which can reduce absorbance by 50% (compared with DMSO), is regarded as GI50, and can be determined via dose-response curves. Determination of GI50 was conducted thrice for each test compound. GI50 is expressed as mean±SD.
(§2) SI stands for selectivity index and was calculated by substituting GI50 into the following formula: D=E/F (2) where • D=SI • E=GI50 of the respective test compound for cells of the normal cell line • F=GI50 of the respective test compound for cells of the cancer cell line The experimental results are summarized in Table 4. […]

[3] = test system: AGS (human stomach adenocarcinoma cell); assay: Preferential antiproliferative activity, AGS; type: cell-based
Method: as §1, §2

[4] = test system: PC-3 (human prostate cancer cell); assay: Preferential antiproliferative activity, PC-3; type: cell-based
Method: as §1, §2

[5] = test system: BT483 (human breast carcinoma cell); assay: Preferential antiproliferative activity, BT483; type: cell-based
Method: as §1, §2

[6] = test system: SAS (human oral squamous-cell carcinoma cell); assay: Preferential antiproliferative activity, SAS; type: cell-based
Method: as §1, §2

[7] = test system: CL1-5 (metastatic lung adenocarcinoma cell); assay: Preferential antiproliferative activity, CL1-5; type: cell-based
Method: as §1, §2

[8] = Determination of solubility in water; type: physicochemical
Method: Determination of solubility in water was conducted substantially according to the method as described in Vougogiannopoulou, K. et al. (2008), J. Med. Chem., 51:6421-6431. An excess amount of the respective test compound was added into water, followed by sonication for 5 minutes. The resultant mixture was stirred at ambient temperature (25±0.1° C.) overnight. Centrifugation at 4000 rpm and 25° C. was conducted for 5 minutes. Absorbance of the sample of the respective test compound was measured at 315-420 nm using a UV-VIS spectrophotometer (JASCO UV-Visible V570). For each test compound, a standard curve was generated by plotting concentrations of standard solutions and the corresponding absorbances. The absorbance of the sample of each test compound was then converted to solubility in water (μg/mL) using the corresponding standard curve.

NCI-H460 cells = assay: In vivo inhibition of lung cancer cells, NCI-H460 tumor in nude mice; parameters: species or system Balb/C athymic nude mice; details: for Survival rate: Day 80 (control all dead)
Method: 10^6 NCI-H460 cells were mixed evenly with a proper amount of Matrigel (BD Biosciences). The resultant mixture was injected subcutaneously into each of the nude mice on a dorsal flank close to an upper portion of a hind leg.
The nude mice bearing a tumor were randomly divided into two groups. The first group (n=14) of the nude mice was used to evaluate the effect of compound 13a after intraperitoneal injection, and was further divided into three subgroups including 10 mg/kg group (n=4), 20 mg/kg group (n=6), and a control group (n=4). Compound 13a (in DMSO/Tween 80/PBS (1/1/8, v/v/v)) was administered to the nude mice in 10 mg/kg group and 20 mg/kg group respectively at a dose of 10 mg/kg and a dose of 20 mg/kg via intraperitoneal injection, and 5% dextrose was administered to the nude mice in the control group at the same dosing volume as compound 13a via intraperitoneal injection.
The second group (n=28) of the nude mice was used to evaluate the effect of compound 13a after oral administration, and was further divided into three subgroups including 60 mg/kg group (n=10), 120 mg/kg group (n=10), and a control group (n=8). Compound 13a (in a normal saline solution containing 1% DMSO, 1.4% Tween 80, and 1% sodium carboxymethyl cellulose (Sigma), and serving as a vehicle) was administered to the nude mice in 60 mg/kg group and 120 mg/kg group respectively at a dose of 60 mg/kg and a dose of 120 mg/kg via tube feeding (0.22-0.26 mL of the mixture of compound 13a and the vehicle/nude mouse), and the vehicle was administered to the mice in the control group at a dose of 10 mL/kg via tube feeding.
Administration was conducted once daily for 6 consecutive days. For the first group of the nude mice, the size of the tumor on the dorsal flank was measured with calipers every 9 days for 100 consecutive days. For the second group of the nude mice, the survival rate was calculated every 10 days starting on Day 1 (i.e., the day of the […] administration) for 80 consecutive days, and the size of the tumor on the dorsal flank was measured with the calipers every 3 days for 32 consecutive days.

## C/C(=N\OCCN)c1ccc(Nc2c3ccccc3nc3occc23)cc1 [Compound 13a, (E)-1-(4-(furo[2,3-b]quinolin-4-ylamino)phenyl)ethanone O-2-aminoethyl oxime]
[1]; GI50 MRC-5 / GI50 NCI-H460
  SI NCI-H460: 68.02
[1]; Homo sapiens, NCI-H460, 4 mg/ml, 48 hours, MTT
  activity at 4000 µg/mL: 33%
[1]; Homo sapiens, NCI-H460, 20 mg/ml, 48 hours, MTT
  activity at 20000 µg/mL: -1%
[1]; Homo sapiens, NCI-H460, mean±SD, read-out: GI50 NCI-H460
  GI50: 0.63 ± 0.03 µM
[2]; Homo sapiens, 786-0, mean±SD
  GI50: 24 ± 2 µM
[2]; versus MRC-5
  SI RCC 786-O: 1.77
[3]; Homo sapiens, mean±SD
  GI50: 13.77 ± 0.04 µM
[3]; versus MRC-5
  SI AGS: 3.09
[4]; Homo sapiens, mean±SD
  GI50: 11.8 ± 0.49 µM
[4]; versus MRC-5
  SI PC-3: 3.62
[5]; Homo sapiens, BT-483, mean±SD
  GI50: 10.2 ± 0.9 µM
[5]; versus MRC-5
  SI BT483: 4.22
[6]; Homo sapiens, mean±SD
  GI50: 15.5 ± 2.6 µM
[6]; versus MRC-5
  SI SAS: 2.76
[7]; CL1-5, result based on a single trial
  GI50: 5.18 µM
[7]; versus MRC-5
  SI CL1-5: 8.27
[8]; 25±0.1° C., stirred overnight, UV-VIS
  Solubility in water: 63 µg/mL (≈ 175 µM)
[8]; fold versus compound 2
  Solubility in water relative to compound 2: about six times higher
NCI-H460 cells; intraperitoneal injection, 10 mg/kg and 20 mg/kg once daily for 6 days, versus control
  Size of the tumor: generally grew more slowly with time
NCI-H460 cells; oral administration, 60 mg/kg and 120 mg/kg once daily for 6 days, versus control
  Size of the tumor: generally grew more slowly with time
NCI-H460 cells; oral administration, 60 mg/kg group
  Survival rate: 50%
NCI-H460 cells; oral administration, 120 mg/kg group
  Survival rate: 50%
NCI-H460 cells; oral administration, 120 mg/kg once daily for 6 days
  Size of the tumor: diminished in size after Day 16

— patent US8952033B2, “4-anilinofuro[2,3-b]quinoline derivatives, their preparation processes, and pharmaceutical compositions comprising the same” (Kaohsiung Medical University, priority 2011, dated 2015)
